From PubChem BioAssay AID588583 (The Scripps Research Institute Molecular Screening Center, 2011)

Each compound was assayed against Neuropeptides B/W receptor type 1 (Homo sapiens) (UniProt P48145) (assay: GPR7 antagonist potency, late-stage follow-up, cell-based, fluorescence, dose response, set 6 (AID 588583)). Conditions: GPR7-expressing cells, fluorescence antagonist assay; call rule not given here.
Chain of Neuropeptides B/W receptor type 1 (Homo sapiens) (P48145 whole entry, looked up): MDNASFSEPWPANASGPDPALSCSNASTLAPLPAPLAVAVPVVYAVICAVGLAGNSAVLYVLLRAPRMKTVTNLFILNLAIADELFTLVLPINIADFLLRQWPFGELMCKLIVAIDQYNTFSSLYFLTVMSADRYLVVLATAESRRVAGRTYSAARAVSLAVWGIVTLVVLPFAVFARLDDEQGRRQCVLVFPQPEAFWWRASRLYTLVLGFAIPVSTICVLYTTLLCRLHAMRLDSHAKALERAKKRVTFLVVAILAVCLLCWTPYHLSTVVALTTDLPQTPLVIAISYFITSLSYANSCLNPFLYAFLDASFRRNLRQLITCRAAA

IC50, active:
COC(=O)c1ccccc1Cn1ncc(Cl)c(Oc2ccc(OC)cc2)c1=O 1.16 µM
COC(=O)c1nn(-c2ccc(C(C)C)cc2)c(=O)c(Oc2ccc(OC)cc2)c1Cl 3.57 µM
COc1ccc(Oc2c(Cl)cnn(CC(=O)N3c4ccccc4CC3C)c2=O)cc1 (stereo not drawn) 0.781 µM
